The test system of test [1] is Brachyspira hyodysenteriae. Put plainly: Tested for antibacterial activity against Serpulina hyodysenteriae at a concentration of up to 200 ug/mL; IA= Inactive. Format: functional, organism-based.
Test [2] has as its system Brachyspira hyodysenteriae. Put plainly: Antibacterial activity against Serpulina hyodysenteriae. It counts as functional.

The structures appear in SMILES notation. Values after ≈ are worked out from the molar mass of the structure shown. Active and inactive are the calls of the source. Some results are limits rather than exact numbers.

In the case of `C/C(=C\c1ccc(O[C@@H]2O[C@H]([C@H](C)O)[C@@H](O)[C@@H]2O)c(O)c1)C(=O)N[C@@H]1CCCC[C@@H]1O`, the outcome in test [1] was inactive. `C/C(=C\c1ccc(O[C@@H]2O[C@H]([C@H](C)O)[C@@H](O)[C@@H]2O)c(O)c1)C(=O)N1CCC[C@H]1CO`: the outcome in test [1] was inactive.

What is called MIC is the smallest concentration in the dilution series that meets the test's criterion for growth inhibition. The low end stands for greater potency, the high end for weaker potency. Take `CCC/C(=C\c1ccc(O[C@@H]2O[C@H]([C@@H](C)O)[C@@H](O)[C@@H]2O)c(O)c1)C(=O)N[C@@H]1[C@H](O)[C@@H](O)[C@H]2OCO[C@H]2[C@@H]1O`: the MIC in test [2] is above 200 µg/mL.

For `C[C@@H](O)[C@H]1O[C@@H](Oc2ccc(/C=C(\Br)C(=O)N[C@@H]3[C@H](O)[C@@H](O)[C@H]4OCO[C@H]4[C@@H]3O)cc2O)[C@@H](O)[C@@H]1O`, the lowest concentration to inhibit growth in test [2] (MIC) was 3.13 µg/mL (≈ 5.41 µM). Regarding `C/C(=C\c1ccc(O[C@@H]2O[C@H]([C@H](C)O)[C@@H](O)[C@@H]2O)c(O)c1)C(=O)N1CCN(C)CC1`, the outcome in test [1] was inactive.

For `C/C(=C\c1ccc(O[C@@H]2O[C@H]([C@H](C)O)[C@@H](O)[C@@H]2O)c(O)c1)C(=O)N[C@H]1C(O)O[C@H](CO)[C@@H](O)[C@@H]1O` (some centres not stated), the outcome in test [1] was inactive. For the molecule `C#CC/C(=C\c1ccc(O[C@@H]2O[C@H]([C@@H](C)O)[C@@H](O)[C@@H]2O)c(O)c1)C(=O)N[C@@H]1[C@H](O)[C@@H](O)[C@H]2OCO[C@H]2[C@@H]1O`, the MIC in test [2] is 100 µg/mL (≈ 186 µM). With `C/C(=C\c1ccc(O[C@@H]2O[C@H]([C@H](C)O)[C@@H](O)[C@@H]2O)c(O)c1)C(=O)NCCO`, the result in test [1] was inactive. The molecule `C[C@@H](O)[C@H]1O[C@@H](Oc2ccc(/C=C/C(=O)N[C@@H]3[C@H](O)[C@@H](O)[C@H]4OCO[C@H]4[C@@H]3O)cc2O)[C@@H](O)[C@@H]1O` came in with an MIC in test [2] of 100 µg/mL (≈ 200 µM). With `C/C(=C\c1ccc(O[C@@H]2O[C@H]([C@H](C)O)[C@@H](O)[C@@H]2O)c(O)c1)C(=O)NC1(CO)CCCC1`, the outcome in test [1] was inactive. Turning to `CC/C(=C\c1ccc(O[C@@H]2O[C@H]([C@@H](C)O)[C@@H](O)[C@@H]2O)c(O)c1)C(=O)N[C@@H]1[C@H](O)[C@@H](O)[C@H]2OCO[C@H]2[C@@H]1O`, the MIC in test [2] stood at 3.13 µg/mL (≈ 5.93 µM). For the molecule `C/C(=C\c1ccc(O[C@@H]2O[C@H]([C@H](C)O)[C@@H](O)[C@@H]2O)c(O)c1)C(=O)NC(CO)CO`, the result in test [1] was inactive. Turning to `C/C(=C\c1ccc(O[C@@H]2O[C@H]([C@H](C)O)[C@@H](O)[C@@H]2O)c(O)c1)C(=O)NC1CCCCC1`, the outcome in test [1] was inactive. Consider `C/C(=C\c1ccc(O[C@@H]2O[C@H]([C@H](C)O)[C@@H](O)[C@@H]2O)c(O)c1)C(=O)N[C@@H]1CCC[C@H]1O`, for which the result in test [1] was inactive. As for `C/C(=C\c1ccc(O[C@@H]2O[C@H]([C@H](C)O)[C@@H](O)[C@@H]2O)c(O)c1)C(=O)N1CCN(C(=O)N2CCNCC2)CC1`, in test [1], the outcome was inactive. Consider `C/C(=C\c1ccc(O[C@@H]2O[C@H]([C@H](C)O)[C@@H](O)[C@@H]2O)c(O)c1)C(=O)N1CCC[C@H]1C(=O)O`, for which, in test [1], the outcome was inactive.

On to `C[C@@H](O)[C@H]1O[C@@H](Oc2ccc(/C=C(\Cl)C(=O)N[C@@H]3[C@H](O)[C@@H](O)[C@H]4OCO[C@H]4[C@@H]3O)cc2O)[C@@H](O)[C@@H]1O`, for which the MIC in test [2] was found to be 6.25 µg/mL (≈ 11.7 µM). On the same count and under the same terms, the figure for `CC(=O)[C@H]1O[C@@H](Oc2ccc(C=C(C)C(=O)N[C@@H]3[C@H](O)[C@@H](O)[C@H]4OCO[C@H]4[C@@H]3O)cc2O)[C@@H](O)[C@@H]1O` [HYGROMYCIN A] is 0.78 µg/mL (≈ 1.52 µM). Turning to `C/C(=C\c1ccc(O[C@@H]2O[C@H]([C@H](C)O)[C@@H](O)[C@@H]2O)c(O)c1)C(=O)N1CCNCC1`, the outcome in test [1] was inactive. Turning to `C/C(=C\c1ccc(O[C@@H]2O[C@H]([C@H](C)O)[C@@H](O)[C@@H]2O)c(O)c1)C(=O)N1CCOCC1`, in test [1], the outcome was inactive. In the case of `C/C(=C\c1ccc(O[C@@H]2O[C@H]([C@H](C)O)[C@@H](O)[C@@H]2O)c(O)c1)C(=O)N[C@@H]1CCC[C@@H]1O`, in test [1], the result was inactive.

As to `C/C(=C\c1ccc(O[C@@H]2O[C@H]([C@H](C)O)[C@@H](O)[C@@H]2O)c(O)c1)C(=O)N[C@@H]1CCCC[C@H]1O`, the result in test [1] was inactive. Take `C=CC/C(=C\c1ccc(O[C@@H]2O[C@H]([C@@H](C)O)[C@@H](O)[C@@H]2O)c(O)c1)C(=O)N[C@@H]1[C@H](O)[C@@H](O)[C@H]2OCO[C@H]2[C@@H]1O`: the MIC in test [2] is above 200 µg/mL. Regarding `C/C(=C\c1ccc(O[C@@H]2O[C@H]([C@H](C)O)[C@@H](O)[C@@H]2O)c(O)c1)C(=O)N1CCCCC1CO` (some centres not stated), in test [1], the outcome was inactive.

Turning to `C/C(=C\c1ccc(O[C@@H]2O[C@H]([C@@H](C)O)[C@@H](O)[C@@H]2O)c(O)c1)C(=O)N[C@@H]1[C@H](O)[C@@H](O)[C@H]2OCO[C@H]2[C@@H]1O`, the MIC in test [2] stood at 3.13 µg/mL (≈ 6.1 µM). As to `C/C(=C\c1ccc(O[C@@H]2O[C@H]([C@H](C)O)[C@@H](O)[C@@H]2O)c(O)c1)C(=O)N[C@@H]1C(O)O[C@H](CO)[C@@H](O)[C@@H]1O` (some centres not stated), the outcome in test [1] was inactive. In the case of `C/C(=C\c1ccc(O[C@@H]2O[C@H]([C@H](C)O)[C@@H](O)[C@@H]2O)c(O)c1)C(=O)N[C@H]1CC[C@H](O)CC1`, in test [1], the result was inactive.

(Values after ChEMBL document CHEMBL1150434, “Semisynthetic modification of hygromycin A. 1. Synthesis and antibacterial activity of vinyl methyl and amide analogs” (1992).)
